Laboratory results from PubChem BioAssay (NCI).
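Cultured in 96-well plates, cells were exposed to test compound for 48 hours across five concentrations. Here, GI50 denotes the concentration required for 50% inhibition of growth. TGI: concentration producing complete growth inhibition.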

Experiments:
Assay in all cases: DTP human tumour cell line panel, 48 h
SF-268 CNS = tested on: SF-268 CNS
NCI-H522 lung = tested on: NCI-H522 lung
HT29 colon = tested on: HT29 colon
RPMI-8226 leukemia = tested on: RPMI-8226 leukemia
ACHN renal = tested on: ACHN renal
SW-620 colon = tested on: SW-620 colon
SNB-75 CNS = tested on: SNB-75 CNS
MALME-3M melanoma = tested on: MALME-3M melanoma
OVCAR-8 ovarian = tested on: OVCAR-8 ovarian
DU-145 prostate = tested on: DU-145 prostate

Compound	TGI (SF-268 CNS)	TGI (NCI-H522 lung)	TGI (HT29 colon)	TGI (RPMI-8226 leukemia)	TGI (ACHN renal)	TGI (SW-620 colon)	TGI (SNB-75 CNS)	TGI (MALME-3M melanoma)	TGI (OVCAR-8 ovarian)	GI50 (SF-268 CNS)	GI50 (NCI-H522 lung)	GI50 (HT29 colon)	GI50 (RPMI-8226 leukemia)	GI50 (ACHN renal)	GI50 (DU-145 prostate)	TGI (DU-145 prostate)	GI50 (SW-620 colon)	GI50 (MALME-3M melanoma)	GI50 (OVCAR-8 ovarian)
C1OC1CN1CCN(CC2CO2)CC1 (centres undefined)	> 100 µM	> 100 µM	> 100 µM	> 100 µM	> 100 µM	> 100 µM	> 100 µM	> 100 µM	> 100 µM										
Cc1cc(C(=O)/C=C/c2ccc[nH]2)ccc1-n1ccc(C(F)(F)F)n1	> 100 µM	65.6 µM	> 100 µM	3.33 µM	> 100 µM	> 100 µM		54.7 µM	> 100 µM	3.37 µM	3.68 µM	14.4 µM	0.592 µM	21.3 µM	24.8 µM	> 100 µM	10.7 µM	7.25 µM	6.27 µM
O=C1N2Cc3c4ccc5c3CN3C(=O)N6Cc7c(ccc(c7CN1C6(c1ccccc1)C23c1ccccc1)OCCOCCOc1cc(Br)c(Br)cc1OCCOCCO4)OCCOCCOc1cc(Br)c(Br)cc1OCCOCCO5 (centres undefined)	> 100 µM	> 100 µM	> 100 µM	> 100 µM	> 100 µM	28.3 µM	> 100 µM	> 100 µM	> 100 µM										
C/C(=N\NC(=O)C[N+](C)(C)C)c1sc(-c2cccnc2)nc1C	> 100 µM	> 100 µM	> 100 µM	> 100 µM	> 100 µM	> 100 µM	> 100 µM	> 100 µM	> 100 µM										
C/C(=N\NC(N)=S)c1ccc(C)c(C)c1	> 100 µM		98.9 µM	> 100 µM	> 100 µM	> 100 µM	> 100 µM	94.1 µM	> 100 µM										
O=[P+](O)c1ccccn1	> 100 µM	> 100 µM	> 100 µM	> 100 µM	> 100 µM	> 100 µM	> 100 µM	> 100 µM	> 100 µM										
Cc1ccc(S(=O)(=O)N/N=C(\c2nc3ccc([N+](=O)[O-])cc3[nH]c2=O)C(O)c2ccc([N+](=O)[O-])cc2)cc1 (centres undefined)	> 100 µM	> 100 µM		> 100 µM	> 100 µM	> 100 µM	> 100 µM	> 100 µM	> 100 µM										
CN(C)CCC(/C=C/c1ccccc1)=N\Nc1ccc(Cl)c(Cl)c1	8.81 µM	4.41 µM	5.01 µM	9.53 µM	4.49 µM	13.3 µM	5.9 µM	32.8 µM	7.8 µM										
NC(=S)N=Nc1c(O)[nH]c2c(Cl)cc(Cl)cc12			42 µM		> 100 µM	> 100 µM	42.4 µM	35.2 µM	40.8 µM										
Cc1cc(N(CCC#N)CCC#N)ccc1N=Nc1cc(Cl)ccc1Cl	29.9 µM	3.41 µM	13.1 µM	34.7 µM	25.4 µM	6.5 µM	28.3 µM	17.9 µM											
O=C1C(=C2CCCC2)CCC1CN1CCCCC1 (centres undefined)	37.5 µM	3.45 µM	42.1 µM			32.1 µM	15.5 µM	30.5 µM	43.4 µM										
CC(C)(C)OP(=O)(OC(C)(C)C)C(O)c1ccc(/C=C(\C#N)C(N)=O)cc1 (centres undefined)	> 100 µM	> 100 µM	> 100 µM	> 100 µM	> 100 µM	> 100 µM	> 100 µM	> 100 µM	> 100 µM										
